The subject of assay [1] is Botrytis cinerea. In words: Preventative fungicidal control of Botrytis cinerea on leaves of green pepper (Botrci P1). It counts as in vivo. The following applies: 150 ppm spray; green pepper inoculated next day; % diseased leaf area after 5 days; untreated control 100. How it is done:
The spray solutions were prepared in several steps: The stock solution were prepared: a mixture of acetone and/or dimethylsulfoxide and the wetting agent/emulsifier Wettol, which is based on ethoxylated alkylphenoles, in a relation (volume) solvent-emulsifier of 99 to 1 was added to 25 mg of the compound to give a total of 5 ml. Water was then added to total volume of 100 ml. This stock solution was diluted with the described solvent-emulsifier-water mixture to the given concentration. G1 Preventative Fungicidal Control of Botrytis cinerea on Leaves of Green Pepper (Botrci P1) Young seedlings of green pepper were grown in pots to the 4 to 5 leaf stage. These plants were sprayed to run-off with an aqueous suspension, containing the concentration of active ingredient or their mixture mentioned in the table below. The next day the plants were inoculated with a aqueous biomalt solution containig the spore suspension of Botrytis cinerea. Then the plants were immediately transferred to a humid chamber. After 5 days at 22 to 24° C. and a relative humidity close to 100% the extent of fungal attack on the leaves was visually assessed as % diseased leaf area.

Assay [2] concerns Septoria tritici. Nature of the assay: Preventative control of leaf blotch on wheat caused by Septoria tritici (Septtr P7). It counts as in vivo. Particulars: 16 ppm spray, wheat inoculated seven days later. How it is done:
The spray solutions were prepared in several steps: The stock solution were prepared: a mixture of acetone and/or dimethylsulfoxide and the wetting agent/emulsifier Wettol, which is based on ethoxylated alkylphenoles, in a relation (volume) solvent-emulsifier of 99 to 1 was added to 25 mg of the compound to give a total of 5 ml. Water was then added to total volume of 100 ml. This stock solution was diluted with the described solvent-emulsifier-water mixture to the given concentration. G2. Preventative Control of Leaf Blotch on Wheat Caused by Septoria tritici (Septtr P7) Leaves of pot-grown wheat seedling were sprayed to run-off with an aqueous suspension of the active compound or their mixture, prepared as described. The plants were allowed to air-dry. Seven days later the plants were inoculated with an aqueous spore suspension of Septoria tritici. Then the trial plants were immediately transferred to a humid chamber at 18-22° C. and a relative humidity close to 100%. After 4 days the plants were transferred to a chamber with 18-22° C. and a relative humidity close to 70%. After 4 weeks the extent of fungal attack on the leaves was visually assessed as % diseased leaf area. […]

Assay [3] relates to Septoria tritici. In words: Curative control of leaf blotch on wheat caused by Septoria tritici (Septtr K7). The assay is classed as in vivo. Particulars: 250 ppm spray seven days after inoculation (curative), untreated control 90. How it is done:
The spray solutions were prepared in several steps: The stock solution were prepared: a mixture of acetone and/or dimethylsulfoxide and the wetting agent/emulsifier Wettol, which is based on ethoxylated alkylphenoles, in a relation (volume) solvent-emulsifier of 99 to 1 was added to 25 mg of the compound to give a total of 5 ml. Water was then added to total volume of 100 ml. This stock solution was diluted with the described solvent-emulsifier-water mixture to the given concentration. G2 Curative Control of Leaf Blotch on Wheat Caused by Septoria tritici (Septtr K7) Leaves of pot-grown wheat seedling were inoculated with an aqueous spore suspension of Septoria tritici. Then the trial plants were immediately transferred to a humid chamber at 18-22° C. and a relative humidity close to 100%. After 4 days the plants were transferred to a chamber with 18-22° C. and a relative humidity close to 70%. Seven days after inoculation the plants were sprayed to run-off with an aqueous suspension of the active compound or their mixture, prepared as described. Then the plants were transferred back to the chamber with 18-22° C. and a relative humidity close to 70%. After 4 weeks the extent of fungal attack on the leaves was visually assessed as % diseased leaf area.

The subject of assay [4] is Phakopsora pachyrhizi. In words: Protective control of soy bean rust on soy beans caused by Phakopsora pachyrhizi (Phakpa P2). The assay is classed as in vivo. Particulars: 250 ppm spray; soy bean inoculated 2 days later; untreated control 90. How it is done: The spray solutions were prepared in several steps:
The stock solution were prepared: a mixture of acetone and/or dimethylsulfoxide and the wetting agent/emulsifier Wettol, which is based on ethoxylated alkylphenoles, in a relation (volume) solvent-emulsifier of 99 to 1 was added to 25 mg of the compound to give a total of 5 ml. Water was then added to total volume of 100 ml. This stock solution was diluted with the described solvent-emulsifier-water mixture to the given concentration.
G3 Protective Control of Soy Bean Rust on Soy Beans Caused by Phakopsora pachyrhizi (Phakpa P2)
Leaves of pot-grown soy bean seedlings were sprayed to run-off with an aqueous suspension, containing the concentration of active ingredient or their mixture as described below. The plants were allowed to air-dry. The trial plants were cultivated for 2 days in a greenhouse chamber at 23-27° C. and a relative humidity between 60 and 80%. Then the plants were inoculated with spores of Phakopsora pachyrhizi. To ensure the success the artificial inoculation, the plants were transferred to a humid chamber with a relative humidity of about 95% and 20 to 24° C. for 24 h. The trial plants were cultivated for fourteen days in a greenhouse chamber at 23-27° C. and a relative humidity between 60 and 80%. The extent of fungal attack on the leaves was visually assessed as % diseased leaf area.

For assay [5], the system named is Botrytis cinerea. Nature of the assay: Long lasting control of Botrytis cinerea on leaves of green pepper (Botrci P7). The assay is classed as in vivo. Particulars: 63 ppm spray; green pepper inoculated 7 days later; untreated control 100. The method, then:
The spray solutions were prepared in several steps: The stock solution were prepared: a mixture of acetone and/or dimethylsulfoxide and the wetting agent/emulsifier Wettol, which is based on ethoxylated alkylphenoles, in a relation (volume) solvent-emulsifier of 99 to 1 was added to 25 mg of the compound to give a total of 5 ml. Water was then added to total volume of 100 ml. This stock solution was diluted with the described solvent-emulsifier-water mixture to the given concentration. G4 Long Lasting Control of Botrytis cinerea on Leaves of Green Pepper (Botrci P7) Young seedlings of green pepper were grown in pots to the 4 to 5 leaf stage. These plants were sprayed to run-off with an aqueous suspension, containing the concentration of active ingredient or their mixture mentioned in the table below. The plants were then cultivated in the greenhouse for 7 days and then inoculated with a aqueous biomalt solution containig the spore suspension of Botrytis cinerea. Then the plants were immediately transferred to a humid chamber. After 5 days at 22 to 24° C. and a relative humidity close to 100% the extent of fungal attack on the leaves was visually assessed as % diseased leaf area.

Assay [6] has as its system Alternaria solani. In words: Microtest: activity against early blight caused by Alternaria solani (Alteso). It counts as cell-based. The following applies: micro titer plate, 405 nm, 7 days after inoculation, relative growth vs compound-free control (100%). The method, then:
Microtest The active compounds were formulated separately as a stock solution having a concentration of 10000 ppm in dimethyl sulfoxide. M1: Activity Against Early Blight Caused by Alternaria solani (Alteso) The stock solutions were mixed according to the ratio, pipetted onto a micro titer plate (MTP) and diluted with water to the stated concentrations. A spore suspension of Alternaria solani in an aqueous biomalt or yeast-bactopeptone-glycerine solution was then added. The plates were placed in a water vapor-saturated chamber at a temperature of 17° C. Using an absorption photometer, the MTPs were measured at 405 nm 7 days after the inoculation. The measured parameters were compared to the growth of the active compound-free control variant (100%) and the fungus-free and active compound-free blank value to determine the relative growth in % of the pathogens in the respective active compounds.

The test system of assay [7] is Puccinia recondita. Nature of the assay: Preventative control of brown rust on wheat caused by Puccinia recondita (Puccrt P7). It counts as in vivo. The following applies: 250 ppm spray; wheat inoculated seven days later; untreated plants 90% infected. How it is done:
The spray solutions were prepared in several steps: The stock solution were prepared: a mixture of acetone and/or dimethylsulfoxide and the wetting agent/emulsifier Wettol, which is based on ethoxylated alkylphenoles, in a relation (volume) solvent-emulsifier of 99 to 1 was added to 25 mg of the compound to give a total of 5 ml. Water was then added to total volume of 100 ml. This stock solution was diluted with the described solvent-emulsifier-water mixture to the given concentration. G3. Preventative Control of Brown Rust on Wheat Caused by Puccinia recondita (Puccrt P7) The first two developed leaves of pot-grown wheat seedling were sprayed to run-off with an aqueous suspension, containing the concentration of active ingredient or their mixture as described below. Seven days later the plants were inoculated with spores of Puccinia recondita. To ensure the success the artificial inoculation, the plants were transferred to a humid chamber without light and a relative humidity of 95 to 99% and 20 to 24° C. for 24 h. Then the trial plants were cultivated for 6 days in a greenhouse chamber at 20-24° C. and a relative humidity between 65 and 70%. The extent of fungal attack on the leaves was visually assessed as % diseased leaf area.

SMILES strings stand for the structures.

On to `C#CCOC(Cn1cncn1)c1ccc(Oc2ccc(Cl)cc2)cc1Cl` (centres unmarked) [DE 3801223 table 1, compound 30], for which the “Disease (%) at 150 ppm Botrci P1” value in assay [1] was 60%. For the same compound, the “Disease (%) at 16 ppm Septtr P7” value was 60% in assay [2] (% diseased leaf area after 4 weeks, untreated control 90) and 60% in assay [2] (section C table). Also, in assay [3], the “Disease (%) at 250 ppm Septtr K7” value is on record as 40%. Moreover, the “Disease (%) at 250 ppm Phakpa P2” value in assay [4] amounted to 70%. Further, the “Disease (%) at 63 ppm Botrci p7” value in assay [5] is listed as 80%. Also, the “Growth (%) at 0.008 ppm Alteso” value in assay [6] stood at 48%.

With `C#CCOC(Cn1cncn1)(c1ccc(Oc2ccc(Cl)cc2)cc1Cl)C(C)C` (centres unmarked) [I-4, 1-[2-[2-chloro-4-(4-chlorophenoxy)phenyl]-3-methyl-2-prop-2-ynoxy-butyl]-1,2,4-triazole], the “infection (% diseased leaf area) Puccrt P7” value in assay [7] came to 0%.

The record behind these values is patent US20140243194A1, “Fungicidal substituted 1--1H-[1,2,4]triazole compounds” (BASF SE, priority 2011, published 2014).
